Data set [1] can be described thus: Toxicity in wild type Caenorhabditis elegans N2 assessed as drug tolerance at 0.0001 to 50 uM. As to conditions: dose 0.0001-50 µM.
The nature of data set [2]: Toxicity in wild type C57BL/6J mouse assessed as effect on vertical activity at 10 to 50 mg/kg, ip administered daily for 7 days and measured daily. The class given is organism-based. As to conditions: in vivo, 168 h, dose 10-50 mg/kg, time 7 day.
Data set [3] is described as follows: Toxicity in wild type C57BL/6J mouse assessed as effect on body temperature at 10 to 50 mg/kg, ip administered daily for 7 days. The data set is classed as organism-based. As to conditions: in vivo, 168 h, dose 10-50 mg/kg, time 7 day.
Data set [4] concerns Hs-578T. The experiment in a line: Antitumor activity against human Hs-578T cells implanted in chick eggs assessed as regression in tumors' perimeter at 2 times IC50 administered starting from day 13 and measured 17 days post embryo development by stereomicroscopic analysis relative to control. As to conditions: time 5 day. The class given is functional.
Data set [5] concerns Hs-578T. The data set can be described thus: Induction of cell cycle arrest in human Hs-578T cells assessed as accumulation of cells at S phase at IC50 measured after 48 hrs by RNase/PI staining based flow cytometry analysis. The data set is classed as functional. (A flow cytometer gives signals particle by particle.)
The subject of data set [6] is Hs-578T. The experiment in a line: Cytotoxicity against human Hs-578T cells assessed as reduction in cell viability at 10 uM incubated for 72 hrs by SRB assay relative to control. The data set is classed as functional.
Data set [7] in a line: Toxicity in wild type C57BL/6J mouse assessed as piloerection at 10 to 50 mg/kg, ip administered daily for 7 days and measured daily. The class given is organism-based. As to conditions: in vivo, 168 h, dose 10-50 mg/kg, time 7 day.
For data set [8], the system named is Hs-578T. The data set can be described thus: Cytotoxicity against human Hs-578T cells assessed as inhibition of cell growth incubated for 72 hrs by SRB assay. The class given is functional, cell-based. Background: In SRB staining, fixed cells bind dye roughly in proportion to their protein.
Data set [9] in a line: Toxicity in wild type C57BL/6J mouse assessed as effect on body curvature at 10 to 50 mg/kg, ip administered daily for 7 days and measured daily. The data set is classed as organism-based. As to conditions: in vivo, 168 h, dose 10-50 mg/kg, time 7 day.
Data set [10] relates to Hs-578T. The experiment in a line: Induction of apoptosis in human Hs-578T cells assessed as increase in caspase-9 protein expression at IC50 measured after 24 to 48 hrs by Western blot analysis. As to conditions: time 24-48 hrs. The class given is functional, cell-based. Background: In western blotting, separated proteins are transferred to a membrane and probed.
Data set [11] in a line: Toxicity in wild type Caenorhabditis elegans N2 assessed as effect on food consumption at 0.0001 to 50 uM measured daily for 7 days by food clearance assay. As to conditions: 168 h, dose 0.0001-50 µM, time 7 day.
The subject of data set [12] is Hs-578T. The data set can be described thus: Induction of apoptosis in human Hs-578T cells assessed as increase in caspase-8 protein expression at IC50 measured after 48 hrs by Western blot analysis. The data set is classed as functional, cell-based.
Data set [13] can be described thus: Toxicity in wild type C57BL/6J mouse assessed as straub tail reaction at 10 to 50 mg/kg, ip administered daily for 7 days and measured daily. The data set is classed as organism-based. As to conditions: in vivo, 168 h, dose 10-50 mg/kg, time 7 day.
Data set [14] is described as follows: Cytotoxicity against human MCF-10A cells assessed as inhibition of cell growth incubated for 72 hrs by SRB assay. The class given is toxicity, cell-based.

Molecules are shown by their SMILES. Activity calls are given as the source filed them. The rule behind the calls is not given here.

Broadly, the IC50 is the concentration needed to halve the response being measured. Take `Brc1ccc2c(c1)-c1cc(-c3ccccc3)nc3c1C(N=CN3c1ccccc1)O2` (centres undefined): the Activity entry in data set [1] is on record as “Non-Toxic”; in data set [2], “Non-Toxic”; in data set [3] it was “Non-Toxic”; in data set [4] it was 12.4%; in [6], roughly 50%; in [7] it was “Non-Toxic”. For the same compound, the Activity result in data set [9], in data set [11] and in data set [13] was “Non-Toxic” throughout. Besides, the result in [5] and in data set [10] was Active. The IC50 in [8] was 8.63 µM. The outcome in data set [12] was inactive. Besides, in data set [14], the IC50 at 72 h was 36.8 µM.

For the origin of these results see ChEMBL document CHEMBL5385961, “In vitro and in vivo evaluation of novel chromeno[2,3-d]pyrimidinones as therapeutic agents for triple negative breast cancer” (RSC Med Chem, 2024).
